These results are taken from ChEMBL document CHEMBL1201862, “PubChem BioAssay data set” (2004).

Test systems include CAKI-1; HCT-15; IGROV-1; M14; MDA-MB-231; MDA-MB-435; MOLT-4; NCI-H226; NCI-H460; NCI-H522; OVCAR-3; PC-3; RXF 393; SK-MEL-5; SNB-75; T47D; UO-31; HL-60; KM12; SK-MEL-2.
What all share (test): inhibition of tumour cell growth, NCI panel, 48 h

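Interpolation was linear, between the two tested concentrations surrounding the appropriate level; five concentrations were tested over 48 hours in 96-well plates. At the GI50, growth is halved.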 Active and inactive are the calls of the source. No stated cut-off is given here; in the data, active = GI50 up to about 1.1 µM and inactive = higher.

For `CN(/N=C/C=N/N(C)C1=NCCCCN1)C1=NCCCCN1`, the GI50 with CAKI-1 was > 100 µM (inactive); with HCT-15 it was over 100 µM; in the test with IGROV-1 it was > 100 µM (inactive); in the test with M14, > 100 µM (inactive); with MDA-MB-231 it was > 100 µM (inactive); in the test on MDA-MB-435, > 100 µM (inactive). Further, the GI50 with MOLT-4, in the test on NCI-H226, in the test on NCI-H460, in the test on NCI-H522, in the test on OVCAR-3 and with PC-3 was > 100 µM (inactive) in each case. For the same compound, the GI50 with RXF 393, in the test on SK-MEL-5, in the test with SNB-75, with T47D and in the test on UO-31 was > 100 µM (inactive) throughout.

Take `O=C(O)CCc1ccc2c(c1)C(=O)CC2`: the GI50 was over 100 µM in the test on HCT-15; > 100 µM (inactive) in the test with HL-60; > 100 µM (inactive) in the test with IGROV-1; > 100 µM (inactive) in the test on KM12; > 100 µM (inactive) in the test on M14; 80.5 µM (inactive) in the test on MDA-MB-231. Moreover, the GI50 with MDA-MB-435, in the test on MOLT-4, in the test on NCI-H226, in the test on NCI-H460, in the test with NCI-H522 and with OVCAR-3 was > 100 µM (inactive) throughout. Moreover, the GI50 with RXF 393 was > 100 µM (inactive); in the test on SK-MEL-2, > 100 µM (inactive); in the test with SK-MEL-5 it was > 100 µM (inactive); in the test on T47D, 93.1 µM (inactive); with UO-31 it was > 100 µM (inactive).

With `O=[N+]([O-])c1cccc(/N=C2\c3ccccc3CN2c2cccc([N+](=O)[O-])c2)c1`, the GI50 is > 100 µM (inactive) in the test with CAKI-1; over 100 µM with HCT-15; > 100 µM (inactive) in the test on IGROV-1; > 100 µM (inactive) in the test with KM12; > 100 µM (inactive) with M14; > 100 µM (inactive) in the test with MDA-MB-231. Also, the GI50 is > 100 µM (inactive) with MDA-MB-435; > 100 µM (inactive) in the test on MOLT-4; > 100 µM (inactive) in the test with NCI-H226; > 100 µM (inactive) with NCI-H460; > 100 µM (inactive) with NCI-H522; 65 µM (inactive) in the test with OVCAR-3. Further, the GI50 with PC-3 was 72.8 µM (inactive); in the test with RXF 393, 31.9 µM (inactive); with SK-MEL-2, > 100 µM (inactive); with SK-MEL-5, > 100 µM (inactive); with SNB-75 it was 24.8 µM (inactive); in the test on T47D, > 100 µM (inactive). Further, the GI50 in the test with UO-31 was > 100 µM (inactive).

As to `OCCCCn1cc(Cn2ncc3c(NCc4ccccc4)ncnc32)nn1`, the GI50 with CAKI-1 is > 100 µM (inactive); with HCT-15, over 100 µM; with IGROV-1, > 100 µM (inactive); with KM12, > 100 µM (inactive); in the test on M14 it was > 100 µM (inactive); in the test on MDA-MB-231, > 100 µM (inactive). Moreover, the GI50 in the test on MDA-MB-435 was 33.7 µM (inactive); in the test on MOLT-4 it was 53.1 µM (inactive); with NCI-H226, > 100 µM (inactive); in the test with NCI-H460, > 100 µM (inactive); with NCI-H522, > 100 µM (inactive); with OVCAR-3, > 100 µM (inactive). Also, the GI50 was > 100 µM (inactive) with PC-3; > 100 µM (inactive) in the test on RXF 393; > 100 µM (inactive) in the test with SK-MEL-2; > 100 µM (inactive) in the test on SK-MEL-5; 66.1 µM (inactive) in the test with T47D; > 100 µM (inactive) in the test with UO-31.

Turning to `CS(=O)(=O)NC12CCC(c3ccccc31)c1ccccc12`, the GI50 with CAKI-1 is > 100 µM (inactive); in the test on HCT-15 it was over 100 µM; with HL-60, > 100 µM (inactive); with IGROV-1, > 100 µM (inactive); with KM12, > 100 µM (inactive); in the test with M14, > 100 µM (inactive). The GI50 in the test on MDA-MB-231, in the test on MDA-MB-435, with MOLT-4, in the test with NCI-H226, in the test on NCI-H460 and in the test with NCI-H522 was > 100 µM (inactive) throughout. In addition, the GI50 in the test on OVCAR-3, with PC-3, in the test with SK-MEL-2, in the test with SK-MEL-5, in the test on SNB-75 and in the test with T47D was > 100 µM (inactive) throughout. The GI50 with UO-31 is > 100 µM (inactive).

Consider `Cc1ccc(S(=O)(=O)OC2C3OC(C)(C)OC3OC2C(c2cc(O)c3c(c2O)C(=O)c2ccccc2C3=O)c2cc(O)c3c(c2O)C(=O)c2ccccc2C3=O)cc1` (stereo unspecified), for which the GI50 was > 10 µM (inactive) in the test with CAKI-1; over 10 µM in the test with HCT-15; > 10 µM (inactive) with HL-60; > 10 µM (inactive) with IGROV-1; > 10 µM (inactive) in the test on KM12; > 10 µM (inactive) in the test with M14. Moreover, the GI50 with MDA-MB-231, in the test with MDA-MB-435, with MOLT-4, in the test on NCI-H226, in the test on NCI-H460 and in the test on NCI-H522 was > 10 µM (inactive) in each case. In addition, the GI50 in the test on OVCAR-3, in the test with PC-3, in the test on SK-MEL-2, in the test on SK-MEL-5, with SNB-75 and with T47D was > 10 µM (inactive) in each case. The GI50 in the test on UO-31 is > 10 µM (inactive).

As to `c1csc(-c2ccc(-c3cccc4nsnc34)s2)c1`, the GI50 in the test on CAKI-1 is 35.8 µM (inactive); in the test on HCT-15 it was over 100 µM; in the test with KM12 it was > 100 µM (inactive); in the test on M14 it was > 100 µM (inactive); with MDA-MB-231, > 100 µM (inactive); in the test on MDA-MB-435, > 100 µM (inactive). The GI50 was 18.7 µM (inactive) with MOLT-4; > 100 µM (inactive) in the test on NCI-H226; > 100 µM (inactive) in the test on NCI-H460; 71.6 µM (inactive) in the test with NCI-H522; > 100 µM (inactive) in the test on OVCAR-3; > 100 µM (inactive) in the test on PC-3. Also, the GI50 with RXF 393 was 94.4 µM (inactive); with SK-MEL-2, > 100 µM (inactive); in the test with SK-MEL-5, > 100 µM (inactive); in the test on SNB-75, 49.3 µM (inactive); in the test with T47D, 5.32 µM (inactive); in the test with UO-31 it was > 100 µM (inactive).

Turning to `CCOC(=O)c1nc2ccccc2nc1Oc1ccc(F)cc1`, the GI50 is over 100 µM in the test with HCT-15; > 100 µM (inactive) in the test with IGROV-1; > 100 µM (inactive) in the test on KM12; > 100 µM (inactive) with M14; > 100 µM (inactive) in the test with MDA-MB-231; > 100 µM (inactive) with MDA-MB-435. For the same compound, the GI50 is > 100 µM (inactive) in the test with NCI-H226; > 100 µM (inactive) with NCI-H460; > 100 µM (inactive) with OVCAR-3; > 100 µM (inactive) in the test with PC-3; 46.8 µM (inactive) in the test with RXF 393; > 100 µM (inactive) with SK-MEL-2. Further, the GI50 is > 100 µM (inactive) in the test on SK-MEL-5, 11.4 µM (inactive) in the test with SNB-75, > 100 µM (inactive) in the test with T47D and > 100 µM (inactive) with UO-31.

On to `O=c1[nH]nc(Cc2ccccc2)n1/N=C/c1ccco1`, for which the GI50 was > 100 µM (inactive) in the test with CAKI-1; over 100 µM in the test with HCT-15; 77.1 µM (inactive) with KM12; > 100 µM (inactive) in the test with M14; > 100 µM (inactive) in the test with MDA-MB-231; > 100 µM (inactive) in the test with MDA-MB-435. Moreover, the GI50 was 99.5 µM (inactive) in the test on MOLT-4; > 100 µM (inactive) in the test on NCI-H226; > 100 µM (inactive) in the test with NCI-H460; > 100 µM (inactive) with OVCAR-3; > 100 µM (inactive) in the test on PC-3; 24 µM (inactive) in the test with RXF 393. Moreover, the GI50 in the test with SK-MEL-2, with SNB-75, in the test with T47D and in the test with UO-31 was > 100 µM (inactive) each time.

`O=c1c2ccccc2nc2sc(/N=C/C=C/c3ccccc3)nn12`: the GI50 with CAKI-1 was > 100 µM (inactive); in the test on HCT-15 it was over 100 µM; in the test on IGROV-1, > 100 µM (inactive); with KM12, > 100 µM (inactive); with M14, > 100 µM (inactive); in the test with MDA-MB-435, > 100 µM (inactive). In addition, the GI50 in the test with MOLT-4 was 44.9 µM (inactive); with NCI-H226 it was > 100 µM (inactive); in the test on NCI-H460, > 100 µM (inactive); in the test on NCI-H522 it was > 100 µM (inactive); with OVCAR-3, > 100 µM (inactive); with PC-3 it was > 100 µM (inactive). Moreover, the GI50 with RXF 393 was > 100 µM (inactive); in the test on SK-MEL-2 it was > 100 µM (inactive); with SK-MEL-5, > 100 µM (inactive); with SNB-75, > 100 µM (inactive); in the test with T47D it was > 100 µM (inactive); in the test with UO-31, 77.4 µM (inactive).

Consider `Cc1ncc(COP(=O)(O)O)c(/C=C2\SC(=S)NC2=O)c1O`, for which the GI50 is > 100 µM (inactive) in the test with CAKI-1; over 100 µM with HCT-15; > 100 µM (inactive) in the test on IGROV-1; > 100 µM (inactive) in the test on KM12; > 100 µM (inactive) in the test with M14; > 100 µM (inactive) in the test with MDA-MB-231. Further, the GI50 in the test on MDA-MB-435, in the test with MOLT-4, in the test with NCI-H226, in the test with NCI-H460, with NCI-H522 and in the test on OVCAR-3 was > 100 µM (inactive) throughout. Besides, the GI50 in the test with PC-3, with RXF 393, in the test with SK-MEL-2, with SK-MEL-5, in the test on SNB-75 and in the test on T47D was > 100 µM (inactive) throughout. Further, in the test on UO-31, the GI50 was > 100 µM (inactive).
